Here are results for 2 compounds from article PMC8247886, “Getting a Grip on the Undrugged: Targeting β‐Catenin with Fragment‐Based Methods” (Chemmedchem, 2021).

The target of data set [1] is T1, β-catenin141–305 (Homo sapiens, UniProt P35222).
T1 construct: Amino acids 141-305 of uniprot ID: P35222; GST (cleaved yes); made in house; host or cells: E. coli BL21 (DE3)
T1 sequence (P35222 141-305): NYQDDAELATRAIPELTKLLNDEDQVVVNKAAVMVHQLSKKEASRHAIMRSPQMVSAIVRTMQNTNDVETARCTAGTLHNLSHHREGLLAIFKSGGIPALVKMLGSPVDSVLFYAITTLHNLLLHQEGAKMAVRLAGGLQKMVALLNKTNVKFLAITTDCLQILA
Kind of data set: STD-NMR fragment screening in mixtures. The format is binding. Conditions: fragment mixture, 250 µM each, 10 µM protein. The text has this:
labelling the protein was expressed in Overnight Express™ Autoinduction NMR Medium - ¹⁵N - Novagen (Merck Millipore) according to the technical description and purified as described for the unlabeled protein. The protein of β-catenin135-663 (Amino acids 135-663 of uniprot ID: P35222) and the β-catenin binding domain of human BCL9 (Amino acids 347–392 of uniprot ID: O00512, containing an additional n-terminal glycine) was purchased (Proteros Biostructures GmbH).
Ligand based 1D 1H experiments were carried out on a Bruker Avance II 600 MHz spectrometer with a 5 mm cryo-QCI probe and z-gradients. […] The on and off resonance spectra were recorded in an interleaved fashion to minimize subtraction artifacts. […] After acquisition, the difference spectrum was calculated by subtracting the two individual spectra. […] These were readily assigned by comparing the signals with the respective pre-recorded reference spectra of the individual compounds present in the mixture. […]
For confirmation of hits obtained from STD-NMR by 2D 15N TROSY NMR4 a Bruker Avance III 600 MHz instrument with a 5 mm cryo-TCI probe and z-gradient was used. […] Spectra were recorded with 48 transients and 64 data points in the indirect dimension. […]
1D, GEM by STD and WaterLOGSY experiments were recorded at 298 K on an Avance III 700MHz spectrometer equipped with a cryogenically cooled 5mm TCI probe. […]

Data set [2] addresses T1, β-catenin141–305. The experiment in a line: 2D 15N NMR (TROSY/HSQC/HMQC) detected binding and Kd titration. The procedure: The construct for expression of β-catenin141-305 (Amino acids 141-305 of uniprot ID: P35222) is based on the previously reported R4 construct1. The plasmid was used to transform E. coli, strain BL21 (DE3) cells (Invitrogen). For protein expression, an overnight culture in LB-medium supplemented ampicillin (100 µg/mL) at 37 °C was prepared and diluted the next day with fresh 2xYT-medium. At OD600 of 0.8 the culture was cooled down to 18 °C and after induction with 0.5 mM IPTG incubated for 20 h. Cell pellets obtained by centrifugation at 5000 rpm were stored at - 20 °C. Cells were solubilized in buffer A (2X Dulbecco’s PBS; 500 mM NaCl; 10 % Glycerol; 0.5 mM TCEP; cOmplete™ Protease Inhibitor Cocktail; pH 7.4) and disrupted by sonication (Sonopuls, Bandelin) on ice. After 30 min the sonicated lysate was clarified by centrifugation (50 min, 13500 rpm, 4 °C). The supernatant was mixed with 20 mL Glutathione Sepharose® 4B resin (GE Healthcare) slurry, washed in lysis buffer, and steered for 3 hours on ice. The beads were spun down, loaded into a XK16 column cartridge and washed with lysis buffer until baseline. The protein was eluted with buffer B (2X Dulbecco’s PBS; 500 mM NaCl; 10 % Glycerol; 0.5 mM TCEP;; pH 7.4) + 25 mM L-Glutathione reduced. After cleavage with 2000 units Human Alpha Thrombin (Enzyme Research Laboratories) at room temperature overnight, the protein was collected in the flow-through fraction of a second GST run (GSTrap HP 5 mL column; GE Healthcare) using buffer B. The flow-through was concentrated by centrifugation using an Amicon© Ultra 15 mL Centrifugal Filter (Merck Millipore) and loaded onto a HiLoad Superdex S75 column (GE Healthcare) equilibrated with 50 mM Tris; 200 mM NaCl; 3 mM DTT; pH 8.
Fractions were analyzed by SDS-PAGE and fractions containing the desired protein were pooled and concentrated with an Amicon© Ultra 15 mL Centrifugal Filter (Merck Millipore). […]
For confirmation of hits obtained from STD-NMR by 2D 15N TROSY NMR4 a Bruker Avance III 600 MHz instrument with a 5 mm cryo-TCI probe and z-gradient was used. The experimental set up (automated sample preparation and transfer into the magnet by a Tecan Freedom Evo pipetting robot and a Bruker Sample Rail system, respectively) was identical. Each sample contained 25 uM 15N labeled β-catenin141-305 25 mM sodium phosphate, 150 mM sodium chloride, 100 mM sodium nitrate, 0.5mM TCEP pH 6.8 in H2O at 25 °C and 8% (v/v) D2O. The protein was incubated with 500 uM fragment in a 2.5 mm NMR tube at 25 °C and a d6DMSO concentration of 1%. Spectra were recorded with 48 transients and 64 data points in the indirect dimension. Manual comparison of the spectrum in the presence of the to be tested fragment with the DMSO reference spectrum reveal either line broadening or chemical shift perturbation of cross peaks. Both effects are indicative for compound binding. All processing and analysis was done with the Topspin 2.1 software (Bruker BioSpin). Further spectral comparisons were performed with the FELIX software package (Felix NMR Inc.) to combine manual with automated analysis5. […]
700MHz spectrometer equipped with a cryogenically cooled 5mm TCI probe. […]
The
WaterLOGSY pulse sequence was used as described before7. Selective water inversion was achieved with a double excitation sculpting element employing water selective Gaussian refocusing pulses (inversion bandwidth of 0.5 ppm, pulse length of 7.5 ms). The number of scans was set to 2048. Sample concentrations were 0.5 mM ligand and 0.25–10 µM β-catenin135-663 in […]

A short description of data set [3]: Solubility in NMR buffer at pH 7.5 by quantitative NMR (maleic acid external standard). The data set is classed as physicochemical. The settings on record: NMR buffer (Tris/NaCl with 2% DMSO-d6), aqueous buffer, kinetic from dmso stock; NMR buffer pH 7.5; intended concentration 500 or 2000 μM; read-out: Solub. pH 7.5. The procedure: buffer (Tris 25 mM, pH 7.5, NaCl 150 mM) containing 2% DMSO-d6. […]
Solubility of compounds was determined in NMR buffer at pH 7.5 (see above) by integrating the
signal of 250 µM maleic acid as an external standard relative to the integrals of the ligands. If the
intended concentrations of 500 µM respective 2000 µM were reached the value is reported as >
500 µM or > 2000 µM. […]

For data set [4], the target named is T1, β-catenin141–305. Kind of data set: Microscale Thermophoresis (MST) screening and Kd determination. The data set is classed as binding. Conditions: assay validation; PBS pH 6.8, 100 mM NaNO3, 0.5 mM TCEP, 0.05% Tween-20, 25 °C. The procedure:
buffer (Tris 25 mM, pH 7.5, NaCl 150 mM) containing 2% DMSO-d6. A stock solution of β-catenin135-663 (12.5 µM) was dialyzed before into Tris 25 mM pH 7.6 NaCl 150 mM and centrifuged at 4° C at 15000 rpm for 20 minutes. Intensity ratios Ilogsy/I1D are derived from scaling of the 1D intensity to the corresponding LOGSY intensity. STD GEMs were acquired with 1.5 µM […]
2.0; and 3.0 seconds for the saturation time build up curves to determine the initial rate constants2.
STD experiments were acquired with on and off resonance saturation at +0.1ppm and -40ppm respectively with 1048 scans each.
Solubility of compounds was determined in NMR buffer at pH 7.5 (see above) by integrating the signal of 250 µM maleic acid as an external standard relative to the integrals of the ligands. If the intended concentrations of 500 µM respective 2000 µM were reached the value is reported as > 500 µM or > 2000 µM. Compound 3 only reached a concentration of 1000 µM according to the QNMR experiment even though 2000 µM was intended, it’s solubility is therefore reported as […]
Microscale Thermophoresis.
Fluorescence labeling of β-catenin141-305 with the NT647 dye was achieved using the Monolith NT.115 Protein Labeling Kit RED-NHS according to the manufacturer’s protocol (NanoTemper Technologies, Munich, Germany). The BCL9 peptide was used as positive control for assay development to achieve a reliably detectable change in the thermophoretic mobility ( ΔFnorm). […]
Final assay conditions were 50 nM NT647 labeled β-catenin141-305 in PBS pH 6.8 supplemented with 100 mM NaNO3, 0.5 mM TCEP and 0.05% Tween-20 at 25° C. Fragment screening detected […]
by MST was carried out as previously described8,9. […] Manual inspection of all MST traces was used to reject non-standard traces stemming from protein aggregation, bleaching, or fluorescence quenching. ΔFnorm values (ΔFnorm=Fhot/Fcold) were calculated and the mean values of the duplicates were compared to the mean values of the DMSO negative control. […] Protein integrity over the entire FBS was monitored by the BCL9 peptide positive control. […]
For orientation: MST reads how a fluorescent partner responds to local heating, with and without ligand.

In data set [5] the target is T1, β-catenin141–305. Kind of data set: Surface Plasmon Resonance (SPR) Kd determination. Conditions: positive control, n=3; 1:1 binding model. The data set is classed as binding. The procedure:
Surface Plasmon Resonance (SPR)
A Biacore T200 instrument was used for SPR analysis, β-catenin141-305 was pre-diluted to a concentration of 0.1 mg/mL with 10 mM sodium acetate buffer, pH 5.0 and immobilized at a density of 6000 –7000 response units on flow cell 2 of a Biacore CM5 chip. Carbonic anhydraseII served as a reference protein on flow cell 3 and flow cell 1 was kept blank and used as the reference surface. A mixture of 20 mM Tris, pH 7.5, 150 mM NaCl, 0.5 mM TCEP, 0.005% Tween20, 2 % dimethyl sulfoxide was used as assay buffer. After pre -equilibration of the chip with 10 blank injections, the Kd measurements were performed by injecting a concentration series of analyte (9 concentrations, 1:1 dilutions). BCL9 347-392 served as a positive control. K d values were determined by global fitting of the steady-state response for each of the 9 concentrations to a 1:1 interaction model using the Biacore T200 evaluation software. Each compound was injected three times and […]
average Kd values were calculated from the repeats. The reported data are the mean values of three independent experiments ± standard deviations. […]
Glutamax Supplement (Thermo Fisher Scientific, 35050061) with 10% FCS (GE Healthcare, SH30071.03). Transfections were performed with Lipofectamine LTX Reagent (Thermo Fisher, 15338100) according the manufacturer’s instructions.

The target of data set [6] is β-catenin. Also noted: method as in PMID 17052462. The settings on record: previously determined binding affinity; read-out: ITC Kd; cited from earlier work.

Take `O=C1NCCNc2c1cccc2[N+](=O)[O-]` [Compound 1]: the STD-NMR binding result in data set [1] was “unambiguously identified as binders”. For the same compound, the “chemical shift perturbations (CSPs) in 2D 15N NMR” value in data set [2] (500 μM compound) was “minor chemical shift perturbation”. Further, in data set [2] (15N NMR titration, single titration, mean of curves of selected cross peaks ± SD, read-out: HSQC Kd), the dissociation constant (Kd) (commonly the free concentration of one partner at which half of the binding sites on the other are occupied at equilibrium, for simple one-to-one binding) was above 10000 µM. The solubility in data set [3] is above 500 µM.

Take “BCL9^347−392: β-catenin binding domain of human BCL9 (amino acids 347–392, additional N-terminal glycine), positive control (NPDGLSQEQLEHRERSLQTLRDIQRMLFPDEKEFTGAQSGGPQQNP; additional N-terminal glycine; UniProt O00512 347-392, looked up, fragment) [reference compound]”: the values for the Kd in data set [4], in data set [5] and in data set [6] were 0.36 µM, 0.225 µM and 0.54 µM, respectively.
